Here are results for seven molecules from patent US20240239861A1, “GLUCAGON-RECEPTOR SELECTIVE POLYPEPTIDES AND METHODS OF USE THEREOF” (i2O Therapeutics, Inc., priority 2016, published 2024).

The structures appear in SMILES notation. Read-outs that look alike come from different tables or passages of the source. *1 amine or outer side, *2 acyl side, *3 side chain or, on linkers, in order; H or OH if unused. Where a SMILES comes first, the peptide text is derived from it. Side-chain parts run from the residue outwards. [ ]: non-standard residue; d: D form. The star is where a group is joined. γGlu = O=C(O)[C@H](CCC(=O)[*:2])N[*:1]; Palmitoyl = CCCCCCCCCCCCCCCC(=O)*; Aib = CC(C)(N)C(=O)O A value given as a limit tells only on which side of the number the result lay.

One experiment deals with human GCGR (Homo sapiens, UniProt P47871). Description: Peptide-receptor mediated cAMP accumulation (LANCE Ultra cAMP) in CHO-K1 cells transfected with human GCGR. Type of experiment: cell-based. On the technique in general: Changes in cAMP serve as a functional read-out for many G protein-coupled receptors.
The target of the next experiment is human GLP-1R (Homo sapiens, UniProt P43220). The experiment can be described thus: Peptide-receptor mediated cAMP accumulation (LANCE Ultra cAMP) in CHO-K1 cells transfected with human GLP-1R. Type of experiment: cell-based.
[1] abbreviates: hGLP1 pEC50 (cAMP mean (n = 3): 11 point curve starting at 1 nM, Table 3).

Chain of human GLP-1R (P43220 24-463): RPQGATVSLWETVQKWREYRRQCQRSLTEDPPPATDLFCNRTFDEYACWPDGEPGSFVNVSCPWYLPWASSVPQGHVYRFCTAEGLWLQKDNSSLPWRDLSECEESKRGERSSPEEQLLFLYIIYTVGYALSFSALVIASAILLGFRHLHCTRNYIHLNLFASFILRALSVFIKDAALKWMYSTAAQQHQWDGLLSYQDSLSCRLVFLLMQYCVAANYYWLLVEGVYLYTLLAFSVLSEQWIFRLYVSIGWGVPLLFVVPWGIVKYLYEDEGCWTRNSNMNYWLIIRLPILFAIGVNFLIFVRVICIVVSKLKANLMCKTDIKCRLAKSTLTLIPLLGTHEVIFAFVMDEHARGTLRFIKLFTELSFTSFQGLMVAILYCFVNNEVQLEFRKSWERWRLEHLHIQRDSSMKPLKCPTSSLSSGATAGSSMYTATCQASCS
Chain of human GCGR (P47871 26-477): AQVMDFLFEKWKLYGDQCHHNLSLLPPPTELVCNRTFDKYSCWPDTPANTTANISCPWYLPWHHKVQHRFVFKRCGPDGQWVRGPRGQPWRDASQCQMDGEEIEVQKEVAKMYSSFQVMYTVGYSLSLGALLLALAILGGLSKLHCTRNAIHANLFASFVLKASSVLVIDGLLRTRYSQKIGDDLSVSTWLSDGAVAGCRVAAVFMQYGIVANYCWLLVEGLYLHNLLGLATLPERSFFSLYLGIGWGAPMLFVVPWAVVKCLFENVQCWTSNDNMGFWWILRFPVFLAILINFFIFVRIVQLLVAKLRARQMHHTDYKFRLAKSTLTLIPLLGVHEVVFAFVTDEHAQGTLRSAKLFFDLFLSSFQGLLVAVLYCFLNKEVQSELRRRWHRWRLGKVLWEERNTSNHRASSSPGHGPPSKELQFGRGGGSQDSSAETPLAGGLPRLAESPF

As to `CC(C)C[C@H](NC(=O)[C@H](Cc1c[nH]c2ccccc12)NC(=O)[C@H](CCCCN)NC(=O)[C@H](CO)NC(=O)[C@H](Cc1c[nH]cn1)NC(=O)[C@H](CC(=O)O)NC(=O)[C@H](CO)NC(=O)[C@@H](NC(=O)[C@H](Cc1ccccc1)NC(=O)[C@@H](NC(=O)CNC(=O)[C@H](Cc1c[nH]cn1)NC(=O)[C@H](CO)NC(=O)[C@@H](N)Cc1ccc(O)cc1)[C@@H](C)O)[C@@H](C)O)C(=O)N[C@@H](CC(=O)O)C(=O)NC(C)(C)C(=O)N[C@@H](C)C(=O)N[C@@H](CCCNC(=N)N)C(=O)N[C@@H](C)C(=O)N[C@@H](CCC(N)=O)C(=O)N[C@@H](CCC(=O)O)C(=O)N[C@@H](Cc1ccccc1)C(=O)N[C@H](C(=O)NC(C)(C)C(=O)N[C@@H](Cc1c[nH]c2ccccc12)C(=O)N[C@@H](CC(C)C)C(=O)N[C@@H](CCC(=O)O)C(=O)N[C@@H](CC(=O)O)C(=O)N[C@@H](CCC(=O)O)C(=O)N1CCC[C@H]1C(=O)N[C@@H](CO)C(=O)N[C@@H](CO)C(=O)NCC(=O)N[C@@H](C)C(=O)N1CCC[C@H]1C(=O)N1CCC[C@H]1C(=O)N1CCC[C@H]1C(=O)N[C@@H](CO)C(=O)O)C(C)C` [Compound A36] (H-YSHGTFTSDHSKWLD[Aib]ARAQEFV[Aib]WLEDEPSSGAPPPS-OH; N-terminus assumed), the EC50 is 0.0631 nM on human GCGR (Table 3) and over 1 nM at human GLP-1R (setting [1]).

Turning to `CC(C)C[C@H](NC(=O)[C@H](Cc1ccc(O)cc1)NC(=O)[C@H](CCCCN)NC(=O)[C@H](CO)NC(=O)[C@H](Cc1ccc(O)cc1)NC(=O)[C@H](CC(=O)O)NC(=O)[C@H](CO)NC(=O)[C@@H](NC(=O)[C@H](Cc1ccccc1)NC(=O)[C@@H](NC(=O)CNC(=O)[C@H](Cc1c[nH]cn1)NC(=O)[C@@H](NC(=O)[C@@H](N)Cc1ccc(O)cc1)[C@@H](C)O)[C@@H](C)O)[C@@H](C)O)C(=O)N[C@@H](CC(=O)O)C(=O)NC(C)(C)C(=O)N[C@@H](CCCCN)C(=O)N[C@@H](CCCNC(=N)N)C(=O)N[C@@H](C)C(=O)N[C@@H](CCC(N)=O)C(=O)N[C@@H](CCC(=O)O)C(=O)N[C@@H](Cc1ccccc1)C(=O)N[C@H](C(=O)NC(C)(C)C(=O)N[C@@H](Cc1c[nH]c2ccccc12)C(=O)N[C@@H](CC(C)C)C(=O)N[C@@H](CCC(=O)O)C(=O)N[C@@H](CC(=O)O)C(=O)N[C@@H](CCC(=O)O)C(=O)N1CCC[C@H]1C(=O)N[C@@H](CO)C(=O)N[C@@H](CO)C(=O)NCC(=O)N[C@@H](CCCCN)C(=O)N1CCC[C@H]1C(=O)N1CCC[C@H]1C(=O)N1CCC[C@H]1C(=O)N[C@@H](CO)C(=O)O)C(C)C` [Compound A60] (H-YTHGTFTSDYSKYLD[Aib]KRAQEFV[Aib]WLEDEPSSGKPPPS-OH; N-terminus assumed), the EC50 on human GCGR (Table 3) is 0.00501 nM; on human GLP-1R (setting [1]), over 1 nM.

For the molecule `CC(C)C[C@H](NC(=O)[C@H](Cc1ccc(O)cc1)NC(=O)[C@H](CCCCN)NC(=O)[C@H](CO)NC(=O)[C@H](Cc1ccc(O)cc1)NC(=O)[C@H](CC(=O)O)NC(=O)[C@H](CO)NC(=O)[C@@H](NC(=O)[C@H](Cc1ccccc1)NC(=O)[C@@H](NC(=O)CNC(=O)[C@H](Cc1c[nH]cn1)NC(=O)[C@H](CO)NC(=O)[C@@H](N)Cc1ccc(O)cc1)[C@@H](C)O)[C@@H](C)O)C(=O)N[C@@H](CC(=O)O)C(=O)N[C@@H](CO)C(=O)N[C@@H](C)C(=O)N[C@@H](CCCNC(=N)N)C(=O)N[C@@H](C)C(=O)N[C@@H](CCC(N)=O)C(=O)N[C@@H](CCC(=O)O)C(=O)N[C@@H](Cc1ccccc1)C(=O)N[C@H](C(=O)N[C@@H](CCCCN)C(=O)N[C@@H](Cc1c[nH]c2ccccc12)C(=O)N[C@@H](CC(C)C)C(=O)N[C@@H](CCC(=O)O)C(=O)N[C@@H](CC(=O)O)C(=O)N[C@@H](CCC(=O)O)C(=O)N1CCC[C@H]1C(=O)N[C@@H](CCCCN)C(=O)N[C@@H](CO)C(=O)N[C@@H](CCCCN)C(=O)N[C@@H](C)C(=O)N1CCC[C@H]1C(=O)N1CCC[C@H]1C(=O)N1CCC[C@H]1C(=O)N[C@@H](CO)C(N)=O)C(C)C` [Compound A74] (H-YSHGTFTSDYSKYLDSARAQEFVKWLEDEPKSKAPPPS-NH2; N-terminus assumed), the values for the EC50 on human GCGR (Table 3) and on human GLP-1R (setting [1]) were 0.00251 nM and over 1 nM, respectively.

Regarding `CC(C)C[C@H](NC(=O)[C@H](Cc1ccc(O)cc1)NC(=O)[C@H](CCCCN)NC(=O)[C@H](CO)NC(=O)[C@H](Cc1ccc(O)cc1)NC(=O)[C@H](CC(=O)O)NC(=O)[C@H](CO)NC(=O)[C@@H](NC(=O)[C@H](Cc1ccccc1)NC(=O)[C@@H](NC(=O)CNC(=O)[C@H](Cc1c[nH]cn1)NC(=O)[C@H](CO)NC(=O)[C@@H](N)Cc1ccc(O)cc1)[C@@H](C)O)[C@@H](C)O)C(=O)N[C@@H](CC(=O)O)C(=O)NC(C)(C)C(=O)N[C@@H](CCC(=O)O)C(=O)N[C@@H](CCCNC(=N)N)C(=O)N[C@@H](C)C(=O)N[C@@H](CCC(N)=O)C(=O)N[C@@H](CCC(=O)O)C(=O)N[C@@H](Cc1ccccc1)C(=O)N[C@H](C(=O)NC(C)(C)C(=O)N[C@@H](Cc1c[nH]c2ccccc12)C(=O)N[C@@H](CC(C)C)C(=O)N[C@@H](CCC(=O)O)C(=O)N[C@@H](CC(=O)O)C(=O)N[C@@H](CCC(=O)O)C(=O)N1CCC[C@H]1C(=O)N[C@@H](CO)C(=O)N[C@@H](CO)C(=O)NCC(=O)N[C@@H](C)C(=O)N1CCC[C@H]1C(=O)N1CCC[C@H]1C(=O)N1CCC[C@H]1C(=O)N[C@@H](CO)C(=O)O)C(C)C` [Compound A17] (H-YSHGTFTSDYSKYLD[Aib]ERAQEFV[Aib]WLEDEPSSGAPPPS-OH), the EC50 was 0.00794 nM on human GCGR (Table 3) and over 1 nM on human GLP-1R (setting [1]).

For the molecule `CCCCCCCCCCCCCCCC(=O)N[C@@H](CCC(=O)NCCCC[C@H](NC(=O)[C@H](CC(=O)O)NC(=O)[C@H](CO)NC(=O)[C@@H](NC(=O)[C@H](Cc1ccccc1)NC(=O)[C@@H](NC(=O)CNC(=O)[C@H](Cc1c[nH]cn1)NC(=O)[C@H](CO)NC(=O)[C@@H](N)Cc1ccc(O)cc1)[C@@H](C)O)[C@@H](C)O)C(=O)N[C@@H](CO)C(=O)N[C@@H](CCCCN)C(=O)N[C@@H](Cc1ccc(O)cc1)C(=O)N[C@@H](CC(C)C)C(=O)N[C@@H](CC(=O)O)C(=O)NC(C)(C)C(=O)N[C@@H](CCCCN)C(=O)N[C@@H](Cc1ccc(O)cc1)C(=O)N[C@@H](C)C(=O)N[C@@H](CCC(N)=O)C(=O)N[C@@H](CCC(=O)O)C(=O)N[C@@H](Cc1ccccc1)C(=O)N[C@H](C(=O)NC(C)(C)C(=O)N[C@@H](Cc1c[nH]c2ccccc12)C(=O)N[C@@H](CC(C)C)C(=O)N[C@@H](CCC(=O)O)C(=O)N[C@@H](CC(=O)O)C(=O)N[C@@H](CCC(=O)O)C(=O)N1CCC[C@H]1C(=O)N[C@@H](CO)C(=O)N[C@@H](CO)C(=O)NCC(=O)N[C@@H](C)C(=O)N1CCC[C@H]1C(=O)N1CCC[C@H]1C(=O)N1CCC[C@H]1C(=O)N[C@@H](CO)C(=O)O)C(C)C)C(=O)O` [Compound B4] (H-YSHGTFTSDK([γGlu-Palmitoyl])SKYLD[Aib]KYAQEFV[Aib]WLEDEPSSGAPPPS-OH), the EC50 at human GCGR (read-out: GluR pEC50 (converted)) was 0.794 nM; on human GLP-1R (Table 7, GLP-1R, read-out: GLP-1R pEC50 (converted)), over 1000 nM.

As for `CC(C)C[C@H](NC(=O)[C@H](Cc1ccc(O)cc1)NC(=O)[C@H](CCCCN)NC(=O)[C@H](CO)NC(=O)[C@H](Cc1ccc(O)cc1)NC(=O)[C@H](CC(=O)O)NC(=O)[C@H](CO)NC(=O)[C@@H](NC(=O)[C@H](Cc1ccccc1)NC(=O)[C@@H](NC(=O)CNC(=O)[C@H](Cc1c[nH]cn1)NC(=O)[C@H](CO)NC(=O)[C@@H](N)Cc1ccc(O)cc1)[C@@H](C)O)[C@@H](C)O)C(=O)N[C@@H](CC(=O)O)C(=O)NC(C)(C)C(=O)N[C@@H](CO)C(=O)N[C@@H](CCCNC(=N)N)C(=O)N[C@@H](C)C(=O)N[C@@H](CCC(N)=O)C(=O)N[C@@H](CCC(=O)O)C(=O)N[C@@H](Cc1ccccc1)C(=O)N[C@H](C(=O)NC(C)(C)C(=O)N[C@@H](Cc1c[nH]c2ccccc12)C(=O)N[C@@H](CC(C)C)C(=O)N[C@@H](CCC(=O)O)C(=O)N[C@@H](CC(=O)O)C(=O)N[C@@H](CCC(=O)O)C(=O)N1CCC[C@H]1C(=O)N[C@@H](CO)C(=O)N[C@@H](CO)C(=O)NCC(=O)N[C@@H](C)C(=O)N1CCC[C@H]1C(=O)N1CCC[C@H]1C(=O)N1CCC[C@H]1C(=O)N[C@@H](CO)C(=O)O)C(C)C` [Compound A15] (H-YSHGTFTSDYSKYLD[Aib]SRAQEFV[Aib]WLEDEPSSGAPPPS-OH; N-terminus assumed), the results for the EC50 at human GCGR (Table 3) and on human GLP-1R (setting [1]) were 0.00398 nM and over 1 nM, respectively.

Take `CC(C)C[C@H](NC(=O)[C@H](Cc1ccc(O)cc1)NC(=O)[C@H](CCCCN)NC(=O)[C@H](CO)NC(=O)[C@H](Cc1ccc(O)cc1)NC(=O)[C@H](CC(=O)O)NC(=O)[C@H](CO)NC(=O)[C@@H](NC(=O)[C@H](Cc1ccccc1)NC(=O)[C@@H](NC(=O)CNC(=O)[C@H](Cc1c[nH]cn1)NC(=O)[C@H](CO)NC(=O)[C@@H](N)Cc1c[nH]c2ccccc12)[C@@H](C)O)[C@@H](C)O)C(=O)N[C@@H](CC(=O)O)C(=O)NC(C)(C)C(=O)N[C@@H](CCCCN)C(=O)N[C@@H](CCCNC(=N)N)C(=O)N[C@@H](C)C(=O)N[C@@H](CCC(N)=O)C(=O)N[C@@H](CCC(=O)O)C(=O)N[C@@H](Cc1ccccc1)C(=O)N[C@H](C(=O)NC(C)(C)C(=O)N[C@@H](Cc1c[nH]c2ccccc12)C(=O)N[C@@H](CC(C)C)C(=O)N[C@@H](CCC(=O)O)C(=O)N[C@@H](CC(=O)O)C(=O)N[C@@H](CCC(=O)O)C(=O)N1CCC[C@H]1C(=O)N[C@@H](CO)C(=O)N[C@@H](CO)C(=O)NCC(=O)N[C@@H](C)C(=O)N1CCC[C@H]1C(=O)N1CCC[C@H]1C(=O)N1CCC[C@H]1C(=O)N[C@@H](CO)C(=O)O)C(C)C` [Compound A75] (H-WSHGTFTSDYSKYLD[Aib]KRAQEFV[Aib]WLEDEPSSGAPPPS-OH; N-terminus assumed): the EC50 is 0.00501 nM at human GCGR (Table 3) and over 1 nM at human GLP-1R (setting [1]).
